Laboratory results: PubChem BioAssay AID2060899 (Molecular Pharmacology Branch, DTP, NCI, 2025)

System: 565726-208-R1-J5-PDC complex spheroids, growth inhibition
Assay: Anticancer human tumor 565726-208-R1-J5-PDC patient-derived pancreatic adenocarcinoma cell line growth inhibition [RAS]
Conditions: for IC50: curve of first compound; for viability, T/C: stronger effect = lower value
In short: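 Tumour cells grown as complex spheroids with HUVEC endothelial cells and mesenchymal stem cells, treated with RAS pathway inhibitor combinations. Each agent spans half-log steps from near clinical Cmax, or 10 microM where Cmax is unknown.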
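Also: spheroids exposed to compounds for seven days before readout.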
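For viability, T/C in this document: 100% = DMSO vehicle control viability.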

For C=CC(=O)N1CCN(c2nc(OCC3CCCN3C)nc3c(F)c(-c4nc(N)cc(C)c4C(F)(F)F)c(Cl)cc23)C(C)C1 (configuration not stated) + CCn1c(-c2cccnc2C(C)OC)c2c3cc(ccc31)N1CCOC(CC(NC(=O)C(C(C)C)N(C)C(=O)C3(F)CCN(C(=O)C#CC(C)(C)N(C)C)CC3)C(=O)N3CCCC(N3)C(=O)OCC(C)(C)C2)C1, the IC50 (second compound 0.000949 µM) was over 1 µM, the IC50 (second compound 0.003 µM) was over 1 µM and the IC50 (second compound 0.00949 µM) was over 1 µM. For the same compound, the IC50 (second compound 0.03 µM) was over 1 µM, the IC50 (second compound 0.0949 µM) was over 1 µM and the IC50 (second compound 0.3 µM) was over 1 µM. It also gave a viability, T/C (second compound 0.000949 µM, first compound 0.00316 µM) of 99.3%, a viability, T/C (second compound 0.000949 µM, first compound 0.01 µM) of 98.6% and a viability, T/C (second compound 0.000949 µM, first compound 0.0316 µM) of 108%. For the same compound, the viability, T/C (second compound 0.000949 µM, first compound 0.1 µM) was 111%, the viability, T/C (second compound 0.000949 µM, first compound 0.316 µM) was 97% and the viability, T/C (second compound 0.000949 µM, first compound 1 µM) was 102%. It also gave a viability, T/C (second compound 0.003 µM, first compound 0.00316 µM) of 103%, a viability, T/C (second compound 0.003 µM, first compound 0.01 µM) of 109% and a viability, T/C (second compound 0.003 µM, first compound 0.0316 µM) of 105%. It also gave a viability, T/C (second compound 0.003 µM, first compound 0.1 µM) of 93.6%, a viability, T/C (second compound 0.003 µM, first compound 0.316 µM) of 96.9% and a viability, T/C (second compound 0.003 µM, first compound 1 µM) of 103%. The viability, T/C (second compound 0.00949 µM, first compound 0.00316 µM) was 106%, the viability, T/C (second compound 0.00949 µM, first compound 0.01 µM) was 112% and the viability, T/C (second compound 0.00949 µM, first compound 0.0316 µM) was 104%. It also gave a viability, T/C (second compound 0.00949 µM, first compound 0.1 µM) of 107%, a viability, T/C (second compound 0.00949 µM, first compound 0.316 µM) of 96.8% and a viability, T/C (second compound 0.00949 µM, first compound 1 µM) of 100%. It also gave a viability, T/C (second compound 0.03 µM, first compound 0.00316 µM) of 99.3%, a viability, T/C (second compound 0.03 µM, first compound 0.01 µM) of 97.7% and a viability, T/C (second compound 0.03 µM, first compound 0.0316 µM) of 111%. The viability, T/C (second compound 0.03 µM, first compound 0.1 µM) was 98.7%, the viability, T/C (second compound 0.03 µM, first compound 0.316 µM) was 98.6% and the viability, T/C (second compound 0.03 µM, first compound 1 µM) was 104%. It also gave a viability, T/C (second compound 0.0949 µM, first compound 0.00316 µM) of 97.1%, a viability, T/C (second compound 0.0949 µM, first compound 0.01 µM) of 109% and a viability, T/C (second compound 0.0949 µM, first compound 0.0316 µM) of 109%. For the same compound, the viability, T/C (second compound 0.0949 µM, first compound 0.1 µM) was 94.8%, the viability, T/C (second compound 0.0949 µM, first compound 0.316 µM) was 100% and the viability, T/C (second compound 0.0949 µM, first compound 1 µM) was 94.5%. The viability, T/C (second compound 0.3 µM, first compound 0.00316 µM) was 93.7%, the viability, T/C (second compound 0.3 µM, first compound 0.01 µM) was 79% and the viability, T/C (second compound 0.3 µM, first compound 0.0316 µM) was 96.7%. For the same compound, the viability, T/C (second compound 0.3 µM, first compound 0.1 µM) was 95.4%, the viability, T/C (second compound 0.3 µM, first compound 0.316 µM) was 90.3% and the viability, T/C (second compound 0.3 µM, first compound 1 µM) was 85.3%.
